Measurements: paper PMC11173382, “In Vitro Investigations into the Potential Drug Interactions of Pseudoginsenoside DQ Mediated by Cytochrome P450 and Human Drug Transporters” (Molecules, 2024)

Biological target: T1, hOATP1B1 (Homo sapiens, UniProt Q9Y6L6)
T1 sequence (Q9Y6L6 1-691): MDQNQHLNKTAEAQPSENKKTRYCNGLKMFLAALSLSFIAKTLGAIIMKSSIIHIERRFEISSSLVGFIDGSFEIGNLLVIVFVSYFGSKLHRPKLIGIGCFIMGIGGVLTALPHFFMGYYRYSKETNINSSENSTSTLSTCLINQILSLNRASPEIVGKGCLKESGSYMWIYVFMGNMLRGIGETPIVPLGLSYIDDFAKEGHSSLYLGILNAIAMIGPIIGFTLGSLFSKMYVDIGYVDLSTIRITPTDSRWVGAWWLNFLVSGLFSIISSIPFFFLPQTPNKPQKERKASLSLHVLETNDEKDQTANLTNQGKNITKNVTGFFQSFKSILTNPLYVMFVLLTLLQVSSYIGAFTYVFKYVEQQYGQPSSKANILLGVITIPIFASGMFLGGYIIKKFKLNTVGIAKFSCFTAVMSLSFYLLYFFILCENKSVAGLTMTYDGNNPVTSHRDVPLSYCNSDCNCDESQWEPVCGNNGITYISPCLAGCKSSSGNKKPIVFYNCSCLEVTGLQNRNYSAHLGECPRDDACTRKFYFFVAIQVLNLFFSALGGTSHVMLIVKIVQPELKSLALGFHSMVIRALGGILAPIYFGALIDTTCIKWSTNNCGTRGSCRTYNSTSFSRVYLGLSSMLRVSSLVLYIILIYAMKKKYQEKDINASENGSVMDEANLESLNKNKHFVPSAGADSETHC
Experiment: Substrates uptake assay, HEK293A-OATP1B1 cells (3H-ES)
Format: in vitro ADME
Details: for Transport activity of OATP1B1 (main text: percentage inhibition): negative control = 100%
From the text: Drug transporters mediate the cellular uptake and efflux of their substrates. Therefore, cell lines overexpressing a drug transporter can be utilized to investigate inhibitors of the transporter by assessing changes in substrate uptake. For each drug transporter, we selected a well-characterized inhibitor as the positive control. Radiolabeled substrates were used to indicate the decrease in transport efficiency when the drug transporters were inhibited by PDQ or the control inhibitors.
The concentrations of the control drugs and the substrates were stated in the assay details. Working solutions of the control inhibitors, the radiolabeled substrates, and each dose of PDQ were prepared at 200 times (200×) more concentrated solutions with DMSO for further dilution.
Transporter-overexpressed cell lines. Human organic anion transporter-overexpressed cell lines MDCKII-OAT1 and S2-OAT3, human organic anion transport polypeptide-overexpressed cell lines HEK293A-OATP1B1 and HEK293A-OATP1B3, human organic cation transporter 2-overexpressed cell line S2-OCT2, and human multi-drug resistance protein MDR1 (or P-gp)-overexpressed cell line MDCKII-MDR1 were gifts from Japan Fuji Biomedical Co., Ltd. (Fuji, Shizuoka Prefecture, Japan). Breast cancer resistance protein-overexpressed vesicles (sf9-BCRP vesicle) were purchased from GenoMembrane Co., Ltd. (Yokohama, Kanagawa, Japan).
Substrates uptake assay. In this assay, we studied the inhibition of PDQ against transporters OAT1, OAT3, OCT2, OATP1B1 and OATP1B3 with MDCKII-OAT1, S2-OAT3, S2-OCT2, HEK293A-OATP1B1and HEK293A-OATP1B3 cells, respectively. The radiolabeled substrates for OAT1, OAT3, OATP1B1, OATP1B3 and OCT2 were […], respectively (Table 5). Probenecid ([…]) was the positive control inhibitor of OAT1 and OAT3, while rifampicin ([…]) served as the control drug of OATP1B1 and OATP1B3. For OCT2, we used […] cimetidine to compare with the inhibitory effect of PDQ. Two times (2×) more concentrated working solutions of the drugs and the substrate were prepared with Dulbecco’s phosphate-buffered saline (DPBS, Gibco, Grand Island, NY, USA.). Then, an equal volume of 2× drug solution and 2× radiolabeled substrate solution were mixed as the working mix. All reagents were pre-warmed to 37 °C.
The cells were digested with 0.05% trypsin/EDTA. The density of the single-cell suspension was adjusted to 2.0 × 10^5 cells/mL for S2 cells and to 1.5 × 10^5 cells/mL for MDCK II and HEK293A cells. The cell suspension was then added to the reservoirs of the 24-well plate for culture until full confluency. The medium in the wells was removed, and the wells were washed with DPBS. Then, the plate was incubated for 10 min with pre-warmed DPBS in the wells. After removing DPBS, […] of working mix was added to each well to initiate the substrate uptake process. The reaction time was 5 min for S2-OCT2 cells, while the other four types of cells were incubated with the reaction mix for 2 min. Cold DPBS was used to terminate the substrate transportation. To each well, […] NaOH ([…]) was added to lyse the cells. Then, […] cell lysate was transferred to the counting vials, and 3 mL scintillation cocktail (Aquasol-2, PerkinElmer, Waltham, MA, USA) was added. […] Each sample was replicated three times (N = 3).
In = [100 × (U − U0)/(Uc − U0)]%(3)
The results were expressed as mean ± standard deviation (SD) and analyzed with GraphPad Prism 8.0 software (CA, USA). The IC50 of PDQ was curve-fitted with the FORECAST function. Statistical significance was calculated using a two-tailed test, and a p value < 0.05 was considered as significant.

CC(C)(O)[C@@H]1CC[C@@](C)([C@H]2CC[C@]3(C)[C@@H]2[C@H](O)C[C@@H]2[C@@]4(C)CC[C@H](O)C(C)(C)[C@@H]4CC[C@]23C)O1 [PDQ, (20S,24S)-dammar-20,24-epoxy-3β, 12β, 25-triol]
DPM (3H-ES uptake by OATP1B1) (inhibitor 0.1 μM): 15255.0±875.8 DPM | Transport activity of OATP1B1 (main text: percentage inhibition) (inhibitor 0.1 μM): 100.9±5.8% | DPM (3H-ES uptake by OATP1B1) (inhibitor 0.3 μM): 16354.0±875.5 DPM | Transport activity of OATP1B1 (main text: percentage inhibition) (inhibitor 0.3 μM): 108.1±5.8% | DPM (3H-ES uptake by OATP1B1) (inhibitor 1 μM): 14584.0±689.5 DPM | Transport activity of OATP1B1 (main text: percentage inhibition) (inhibitor 1 μM): 96.4±4.6% | DPM (3H-ES uptake by OATP1B1) (inhibitor 3 μM): 13110.3±561.2 DPM | Transport activity of OATP1B1 (main text: percentage inhibition) (inhibitor 3 μM): 86.7±3.7% | DPM (3H-ES uptake by OATP1B1) (inhibitor 10 μM): 8070.3±754.4 DPM | Transport activity of OATP1B1 (main text: percentage inhibition) (inhibitor 10 μM): 53.4±5.0% | DPM (3H-ES uptake by OATP1B1) (inhibitor 30 μM): 5983.3±318.4 DPM
